These results are taken from PubChem BioAssay (NCI).

Test systems include UO-31 renal; OVCAR-8 ovarian; EKVX NSCLC; MDA-MB-231 breast; DU-145 prostate; HL-60(TB) leukemia; SN12C renal; COLO 205 colon; A498 renal; NCI-H226 lung.
Experiment in all cases: NCI anticancer screen, dose series, 48 h

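Five compound concentrations were applied to cells in 96-well plates for 48 hours; endpoints were derived by simple linear interpolation of the resulting dose-response curve. At the GI50, growth is halved. Definition used: TGI = concentration required for complete inhibition of growth.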 Some results are limits rather than exact numbers.

For `O=C1CCCC2=C1CC1=C(CCCC1=O)N2c1ccc(Cl)cc1`, the TGI in the assay with UO-31 renal, with OVCAR-8 ovarian, in the assay with EKVX NSCLC, with MDA-MB-231 breast, in the assay on DU-145 prostate and in the assay on HL-60(TB) leukemia was over 100 µM throughout. Moreover, the TGI in the assay with SN12C renal, in the assay on COLO 205 colon, in the assay with A498 renal and in the assay with NCI-H226 lung was over 100 µM each time.
For `O=C1c2ccccc2C(=O)N1c1ccc(Cc2ccc(N3C(=O)c4ccccc4C3=O)cc2)cc1`, the TGI with UO-31 renal, in the assay on OVCAR-8 ovarian, in the assay with EKVX NSCLC, with MDA-MB-231 breast, in the assay with DU-145 prostate and in the assay on SN12C renal was over 100 µM each time. Moreover, the TGI with COLO 205 colon, in the assay with A498 renal and in the assay on NCI-H226 lung was over 100 µM each time.
`COc1ccc(-n2cc(-c3cc(OC)c(OC)c(OC)c3)nc2SCc2cccc(C#N)c2)cc1OC`: the GI50 in the assay with UO-31 renal, in the assay with EKVX NSCLC, in the assay on MDA-MB-231 breast, in the assay on DU-145 prostate, in the assay on HL-60(TB) leukemia and with SN12C renal was over 100 µM in each case. Besides, the GI50 in the assay with COLO 205 colon, in the assay on A498 renal and in the assay with NCI-H226 lung was over 100 µM each time. Further, the TGI with UO-31 renal, with EKVX NSCLC, with MDA-MB-231 breast, with DU-145 prostate, in the assay on HL-60(TB) leukemia and with SN12C renal was over 100 µM in each case. The TGI in the assay on COLO 205 colon, in the assay on A498 renal and in the assay with NCI-H226 lung was over 100 µM throughout.
Turning to `O=S(=O)(F)Cc1ccccc1`, the TGI with UO-31 renal, with OVCAR-8 ovarian, in the assay with EKVX NSCLC, in the assay with MDA-MB-231 breast, in the assay with DU-145 prostate and in the assay on SN12C renal was over 100 µM throughout. Also, the TGI with COLO 205 colon, in the assay on A498 renal and in the assay with NCI-H226 lung was over 100 µM in each case.
`Nc1n[n+]([O-])c2ccc(Cl)cc2[n+]1[O-]`: the TGI in the assay with UO-31 renal was over 100 µM; in the assay on EKVX NSCLC it was 80.1 µM; in the assay on MDA-MB-231 breast, over 100 µM; in the assay on DU-145 prostate it was over 100 µM; with HL-60(TB) leukemia it was over 100 µM; with SN12C renal it was over 100 µM. Besides, the figures for the TGI in the assay with COLO 205 colon, with A498 renal and with NCI-H226 lung were 30.9 µM, 96.6 µM and 72.9 µM, respectively.
In the case of `Nc1c(C(=O)c2cccc(-c3cccnc3)c2)cnn1-c1ccc(F)cc1`, the GI50 was over 25 µM in the assay on UO-31 renal; over 13.9 µM in the assay with OVCAR-8 ovarian; over 25 µM with MDA-MB-231 breast; over 25 µM in the assay on DU-145 prostate; over 25 µM in the assay with HL-60(TB) leukemia; over 25 µM with SN12C renal. The GI50 in the assay on COLO 205 colon was over 25 µM; with A498 renal it was over 25 µM; in the assay with NCI-H226 lung, over 16.1 µM. Further, the TGI in the assay on UO-31 renal, in the assay with OVCAR-8 ovarian, in the assay on MDA-MB-231 breast, with DU-145 prostate, with HL-60(TB) leukemia and in the assay with SN12C renal was over 25 µM throughout. Moreover, the TGI in the assay with COLO 205 colon, in the assay with A498 renal and in the assay with NCI-H226 lung was over 25 µM throughout.
Consider `O=C(O)c1cccc([As]=[As]c2cccc(C(=O)O)c2)c1` (stereo unspecified), for which the TGI was over 100 µM with UO-31 renal; over 100 µM in the assay with OVCAR-8 ovarian; over 100 µM in the assay on EKVX NSCLC; 39.9 µM in the assay with MDA-MB-231 breast; over 100 µM in the assay with DU-145 prostate; over 100 µM in the assay with SN12C renal. The TGI in the assay with COLO 205 colon is over 100 µM; in the assay with A498 renal, 75.7 µM; in the assay on NCI-H226 lung it was over 100 µM.
With `O=[N+]([O-])c1ccc(Sc2cccc[n+]2[O-])c2nonc12`, the GI50 was 5.24 µM with UO-31 renal; 9.93 µM in the assay on OVCAR-8 ovarian; 9.59 µM with EKVX NSCLC; 4.7 µM with MDA-MB-231 breast; 3.55 µM in the assay on DU-145 prostate; 8.04 µM in the assay with SN12C renal. For the same molecule, the GI50 with COLO 205 colon was 0.949 µM; in the assay with A498 renal, 4.88 µM; in the assay with NCI-H226 lung it was 21 µM. The TGI with UO-31 renal is 17.4 µM; in the assay with OVCAR-8 ovarian, over 67.6 µM; with EKVX NSCLC, 31.7 µM; in the assay on MDA-MB-231 breast, 16 µM; in the assay on DU-145 prostate it was 13.1 µM; in the assay on SN12C renal, 22.6 µM. The values for the TGI in the assay on COLO 205 colon, in the assay with A498 renal and in the assay on NCI-H226 lung were 2.51 µM, 91.9 µM and over 65.3 µM, respectively.
Consider `N#CC1=C(N)NC(=O)C(C#N)C12Nc1ccccc1S2` (stereo unspecified), for which the GI50 was over 100 µM in the assay with UO-31 renal; 91.3 µM in the assay with OVCAR-8 ovarian; over 100 µM in the assay on EKVX NSCLC; 29.8 µM with MDA-MB-231 breast; over 100 µM in the assay with DU-145 prostate; 91.6 µM in the assay on HL-60(TB) leukemia. In addition, the GI50 with SN12C renal is over 100 µM; in the assay on COLO 205 colon it was 89.9 µM; in the assay with NCI-H226 lung, 41.3 µM. Moreover, the TGI with UO-31 renal, in the assay on OVCAR-8 ovarian, in the assay with EKVX NSCLC, in the assay on MDA-MB-231 breast, in the assay with DU-145 prostate and in the assay with HL-60(TB) leukemia was over 100 µM in each case. The TGI in the assay with SN12C renal, in the assay with COLO 205 colon and in the assay on NCI-H226 lung was over 100 µM each time.
As for `CN(C)Cc1ccc(NC(=O)c2cncc(C#Cc3cnc(N)c4ncccc34)c2)cc1C(F)(F)F`, the GI50 in the assay with UO-31 renal is 1.43 µM; with OVCAR-8 ovarian it was 1.82 µM; in the assay on EKVX NSCLC, 1.71 µM; in the assay on MDA-MB-231 breast, 1.07 µM; in the assay with DU-145 prostate, 1.73 µM; in the assay on HL-60(TB) leukemia, 0.937 µM. Moreover, the figures for the GI50 in the assay on SN12C renal, in the assay on COLO 205 colon and in the assay with A498 renal were 1.54 µM, 0.293 µM and 1.5 µM, respectively. The TGI in the assay on UO-31 renal is 2.8 µM; in the assay on OVCAR-8 ovarian, 3.85 µM; in the assay with EKVX NSCLC it was 3.36 µM; in the assay on MDA-MB-231 breast it was 2.36 µM; in the assay with DU-145 prostate, 3.16 µM; in the assay on HL-60(TB) leukemia, 2.51 µM. Besides, the figures for the TGI with SN12C renal, with COLO 205 colon and in the assay with A498 renal were 3.02 µM, 14 µM and 4.63 µM, respectively.
